Test results as given in paper PMC11713868, “Cryo-EM Structure of Recombinantly Expressed hUGDH Unveils a Hidden, Alternative Allosteric Inhibitor” (Biochemistry, 2024).

Legend:
[1] = molecular target: T1, Human UDP-glucose dehydrogenase (hUGDH) (Homo sapiens, UniProt O60701); assay: NADH absorbance ([…] nm) steady-state kinetics, global fit of UDP-Glc saturation curves; type: biochemical; set-up: gene UGDH; recombinant unliganded hUGDH, His tag removed
T1 sequence (O60701 1-494): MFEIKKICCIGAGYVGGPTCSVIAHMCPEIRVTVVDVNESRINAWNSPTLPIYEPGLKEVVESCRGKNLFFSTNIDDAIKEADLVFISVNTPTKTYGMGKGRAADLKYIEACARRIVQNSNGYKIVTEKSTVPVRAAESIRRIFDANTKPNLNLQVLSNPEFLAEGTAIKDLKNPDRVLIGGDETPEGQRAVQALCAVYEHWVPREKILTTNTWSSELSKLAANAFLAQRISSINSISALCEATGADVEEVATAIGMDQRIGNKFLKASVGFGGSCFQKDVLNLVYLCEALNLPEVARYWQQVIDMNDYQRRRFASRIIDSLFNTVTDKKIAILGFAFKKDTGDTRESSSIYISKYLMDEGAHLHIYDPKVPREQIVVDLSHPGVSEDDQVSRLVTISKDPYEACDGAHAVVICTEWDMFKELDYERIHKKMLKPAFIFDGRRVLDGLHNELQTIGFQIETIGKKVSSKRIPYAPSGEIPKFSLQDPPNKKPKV

[2] = molecular target: T1, Human UDP-glucose dehydrogenase (hUGDH); assay: cryo-EM structure ([…] Å) of copurified complex, HPLC/NMR/MS ligand identification; Ki from global fit of competitive inhibition kinetics; type: biochemical; set-up: gene UGDH; recombinant hUGDH, N-terminal His tag removed by TEV; hexamer
[3] = substrate: NC(=O)c1ccc[n+]([C@@H]2O[C@H](COP(=O)([O-])OP(=O)(O)OC[C@H]3O[C@@H](n4cnc5c(N)ncnc54)[C@H](O)[C@@H]3O)[C@@H](O)[C@H]2O)c1; assay: purified protein; type: biochemical, Homo sapiens; settings: NAD^+ binding (NB) domain; negative cooperativity; varied: cofactor
[4] = molecular target: the molecule itself; assay: cryo-EM structure; hUGDH:UX4O (copurified UDP-4-keto-xylose bound), 1 mg/mL, 20 mM Hepes pH 7.5, 100 mM NaCl, 1 mM DTT; C2 reconstruction at 2.38 Å, E-omega state

## O=c1ccn([C@@H]2O[C@H](COP(=O)(O)OP(=O)(O)O[C@H]3OC[C@@H](O)[C@H](O)[C@H]3O)[C@@H](O)[C@H]2O)c(=O)[nH]1 [UDP-Xyl, UDP-xylose]
[1]
  Ki: 440 ± 20 nM

## O=C1CO[C@H](OP(=O)(O)OP(=O)(O)OC[C@H]2O[C@@H](n3ccc(=O)[nH]c3=O)[C@H](O)[C@@H]2O)[C@H](O)[C@H]1O [UX4O, UDP-4-keto-xylose]
[2]
  Ki: 750 ± 60 nM

B1: Human UDP-glucose dehydrogenase (hUGDH) (enzyme)
chain: MFEIKKICCIGAGYVGGPTCSVIAHMCPEIRVTVVDVNESRINAWNSPTLPIYEPGLKEVVESCRGKNLFFSTNIDDAIKEADLVFISVNTPTKTYGMGKGRAADLKYIEACARRIVQNSNGYKIVTEKSTVPVRAAESIRRIFDANTKPNLNLQVLSNPEFLAEGTAIKDLKNPDRVLIGGDETPEGQRAVQALCAVYEHWVPREKILTTNTWSSELSKLAANAFLAQRISSINSISALCEATGADVEEVATAIGMDQRIGNKFLKASVGFGGSCFQKDVLNLVYLCEALNLPEVARYWQQVIDMNDYQRRRFASRIIDSLFNTVTDKKIAILGFAFKKDTGDTRESSSIYISKYLMDEGAHLHIYDPKVPREQIVVDLSHPGVSEDDQVSRLVTISKDPYEACDGAHAVVICTEWDMFKELDYERIHKKMLKPAFIFDGRRVLDGLHNELQTIGFQIETIGKKVSSKRIPYAPSGEIPKFSLQDPPNKKPKV
notes: UDP-glucose dehydrogenase, human, UniProtKB O60701; also called hUGDH:UX4O (the same protein with copurified UDP-4-keto-xylose); unliganded hUGDH; source: E. coli, purified (TALON column, TEV protease digestion, Superdex 200); not shown: histidine tag, N-terminal, cleaved
[3]
  Km: 83.4 ± 10.4 µM
[4]
  stoichiometry N: 6
